From the NIST ThermoML archive (doi:10.1021/je0499364)

Assays:
[1] = Molar enthalpy of transition or fusion; conditions: Crystal
[2] = Crystal
[3] = molar heat capacity at constant pressure; conditions: 101.33 kPa

CCCCCCCCCCCCC(=O)OC [methyl tridecanoate]
Conditions | Molar enthalpy of transition or fusion [kcal/mol] | Triple point temperature [K]
[1] | 10.9 | –
[2] | – | 279.07

[3]
Conditions | molar heat capacity at constant pressure [J/K/mol]
5 K, Crystal | 0.53
10 K, Crystal | 4.03
20 K, Crystal | 19.77
30 K, Crystal | 41.39
40 K, Crystal | 65.69
50 K, Crystal | 89.16
60 K, Crystal | 108.8
70 K, Crystal | 127.88
80 K, Crystal | 144.45
90 K, Crystal | 158.95
100 K, Crystal | 171.63
110 K, Crystal | 183.91
120 K, Crystal | 195.21
130 K, Crystal | 205.64
140 K, Crystal | 215.67
150 K, Crystal | 225.37
160 K, Crystal | 234.95
170 K, Crystal | 244.5
180 K, Crystal | 254.1
190 K, Crystal | 264.04
200 K, Crystal | 274.24
210 K, Crystal | 284.88
220 K, Crystal | 296.06
230 K, Crystal | 307.94
240 K, Crystal | 321.07
250 K, Crystal | 336.07
260 K, Crystal | 350.98
270 K, Crystal | 371.61
290 K, Liquid | 463.91
300 K, Liquid | 469.05
310 K, Liquid | 473.89
320 K, Liquid | 479.3
330 K, Liquid | 485.18
340 K, Liquid | 491.82

CCCCCCCCCCC(=O)OC [methyl undecanoate]
Conditions | Molar enthalpy of transition or fusion [kcal/mol] | Triple point temperature [K]
[1] | 8.65 | –
[2] | – | 261.8

[3]
Conditions | molar heat capacity at constant pressure [J/K/mol]
5 K, Crystal | 0.42
10 K, Crystal | 3.28
20 K, Crystal | 18.49
30 K, Crystal | 38.09
40 K, Crystal | 59.59
50 K, Crystal | 80.21
60 K, Crystal | 97.96
70 K, Crystal | 113.74
80 K, Crystal | 128.03
90 K, Crystal | 141.39
100 K, Crystal | 152.92
110 K, Crystal | 163.81
120 K, Crystal | 173.57
130 K, Crystal | 182.89
140 K, Crystal | 191.72
150 K, Crystal | 200.53
160 K, Crystal | 209.38
170 K, Crystal | 217.78
180 K, Crystal | 226.5
190 K, Crystal | 235.38
200 K, Crystal | 244.52
210 K, Crystal | 253.93
220 K, Crystal | 264.97
230 K, Crystal | 276.95
240 K, Crystal | 291.77
250 K, Crystal | 320.5
270 K, Liquid | 395.83
280 K, Liquid | 398.95
290 K, Liquid | 402.95
300 K, Liquid | 406.99
310 K, Liquid | 411.22
320 K, Liquid | 416.08
330 K, Liquid | 421.78
340 K, Liquid | 426.55
350 K, Liquid | 431.52
